“And” between values parts separate entries of the source, which are not always exact repeats. Identical values can stand only once.
Legend:
male ICR mice [1] = experiment: Hot plate test, analgesic efficacy (central nervous system); format: in vivo, mouse; settings: G2, 60 mg/kg oral
Protocol: The experimental method used in this example is an analgesic efficacy experiment method using a hot plate test described in the “Guidelines for efficacy test of herbal preparations—General efficacy tests for painful diseases” announced by the Ministry of Food and Drug Safety, wherein the analgesic effect in the central nervous system of a mouse is measured with a response time to a heat stimulus as an index through a hot plate. At this time, the response time to the heat stimulus is measured as a time elapsed until the experimental animal licks the paw or jumps.
(§1) 1) Celebrex (Celecoxib, Pfizer, 200 mg), Saline (Chungwae Pharmaceutical), Chrysanthemum extract (Green Cross HS) and male ICR mice (6 weeks old, weight 30-35 g, Orient Bio) were prepared. In this example, the Chrysanthemum extract was extracted by the organic solvent extraction method described in the above preparative example wherein it was extracted using 70% ethanol.
(§2) 2) 60 mg/kg of Celebrex and 50, 100 and 200 mg/kg of Chrysanthemum extracts were prepared and orally administered to ICR mice, respectively. At this time, Celebrex is converted into administration concentration and suspended in saline while vortexing, and Chrysanthemum extract is suspended in 0.5% CMC and sonicated at 20 to 25° C. for about 10 minutes.
According to the efficacy experimental method using the hot plate test method, as the experimental animals, 5-week-old male ICR mice were purchased, acclimatized for 1 week, and then tested. The hot plate was maintained at 55° C., and drug administration was performed 30 minutes before this method. The central pain response due to heat was measured with an index, i.e., the time elapsed until the mouse licks the hind paw or jumps starting from contacting with the hot plate.
Then, the pain response due to heat was measured with an index, i.e., the time elapsed until the mouse licks the hind paw or jumps starting from contacting with the hot plate.

male ICR mice [2] = experiment: Acetic acid writhing test, analgesic efficacy (peripheral nerves); format: in vivo, mouse; settings: G2, 60 mg/kg oral
Protocol: The experimental method used in this example is the “Acetic acid writhing test” described in the “Guidelines for efficacy test of herbal preparations—General efficacy tests for painful diseases” announced by the Ministry of Food and Drug Safety, wherein acetic acid is administered intraperitoneally to cause damage of capillaries and pain in the abdominal cavity, and the analgesic effect in peripheral nerves is measured using the abdominal contractile response as an index.
as §1, with “mg), acetic acid (Daejunghwageum),” for “mg),”, “(5” for “(6”, “old,” for “old, weight 30-35 g,”
as §2, with “mice.” for “mice, respectively.”
For the experimental method for analgesic effects to the acetic acid writhing test, as the experimental animals, 4-week-old male ICR mice were purchased, acclimatized for 1 week, and then tested. The Chrysanthemum extract and control drug, respectively, were orally administered to mice by dose, followed by intraperitoneal injection of acetic acid (0.7% acetic acid-physiological saline (0.1 ml/10 g B.W.)) 30 minutes after administration. Subsequently, from 5 minutes after injection, the number of occurrences of writhing was measured for 10 minutes (FIG. 3).
Subsequently, from 5 minutes after the intraperitoneal administration, the number of occurrences of writhing syndrome was counted for 10 minutes and results thereof are shown in FIG. 10 and Table 14.

Cc1ccc(-c2cc(C(F)(F)F)nn2-c2ccc(S(N)(=O)=O)cc2)cc1 [Celecoxib]
Response time, % of control (increase rate) (male ICR mice [1]): 53.9% | Response time, individual mouse (male ICR mice [1]; hot plate 55° C., mice 1-8): 26.94 s and 27.82 s and 35.55 s and 36.22 s and 28.54 s and 33.71 s and 32.71 s and 25.61 s | Response time, mean (male ICR mice [1]; n=8, control mean 20.07): 30.89 s | Writhing syndrome/10 min, individual mouse (male ICR mice [2]; 0.7% acetic acid i.p. 30 minutes after administration, mice 1-6): 9.00 /10 min and 6.00 /10 min and 15.00 /10 min and 14.00 /10 min and 25.00 /10 min and 18.00 /10 min | Writhing syndrome/10 min, mean (male ICR mice [2]; n=6, control mean 28.33): 14.50 /10 min | inhibition at 60 mg/kg (male ICR mice [2]; Mus musculus, read-out: Writhing syndrome, % of control (inhibition rate, reduction compared to control)): 48.9%

Source: patent US20240293490A1, “CHRYSANTHEMUM ZAWADSKII EXTRACT AND PREPARING METHOD THEREOF” (GREEN CROSS WELLBEING CORPORATION, priority 2023, published 2024)
